From patent publication US20220380385A1, “PYRIMIDINE FIVE-MEMBERED NITROGEN HETEROCYCLIC DERIVATIVE, PREPARATION METHOD THEREOF AND PHARMACEUTICAL USE THEREOF” (TUOJIE BIOTECH(SHANGHAI) CO., LTD., priority 2019, published 2022)

Assays:
CYP3A4/5 = experiment: CYP inhibition in mixed human liver microsomes, CYP3A4/5 (midazolam); type: in vitro ADME; conditions: pH 7.4, mixed human liver microsomes 0.2 mg/mL, read-out: Median inhibitory concentration (IC50) CYP 3A4/5
Description: (§1) Mixed human liver microsomes from 150 donors (purchased from Corning, catalog number 452117) were used to evaluate the representative substrate metabolic responses of the five main human CYP subtypes (CYP1A2, CYP2C9, CYP2C19, CYP2D6 and CYP3A4/5). The influence of different concentrations of test compounds on the metabolic responses of phenacetin (CYP1A2), diclofenac sodium (CYP2C9), S-mephenytoin (CYP2C19), bufurolol hydrochloride (2D6) and midazolam (CYP3A4/5) was determined by liquid chromatography tandem mass spectrometry (LC/MS/MS).
(§2) 200 μL of the reaction system (100 mmol/L phosphate buffer, pH 7.4, containing 0.3% DMSO, 0.6% acetonitrile and 0.1% methanol by volume respectively) with 30 µM phenacetin, 10 μM diclofenac sodium, 35 μM S-mephenytoin, 5 μM bufurolol hydrochloride, 3 μM midazolam, 1 mM NADPH, test compound (at a concentration of 0.1, 0.3, 1, 3, 10 and 30 μmol/L respectively) or positive compound or blank control and mixed human liver microsomes (0.2 mg/mL) was incubated at 37° C. for 5 minutes. […]
(§3) The peak area was calculated based on the chromatograms. The residual activity ratio (%) was calculated using the following equation: […]
(§4) The CYP median inhibitory concentration (IC50) was calculated by Excel XLfit 5.3.1.3.

[1] = In vivo pharmacokinetics in cynomolgus monkeys (gavage); conditions: male, plasma, po, 5 mg/kg, original drug, cynomolgus monkey, 5 mpk
Description: (§5) Cynomolgus monkeys were used as the test animals. The plasma drug concentration at different times after the cynomolgus monkeys were given the compounds of the invention by gavage was determined by using the LC/MS/MS method. The in vivo pharmacokinetic behavior of the compounds of the present invention in cynomolgus monkeys was studied, and pharmacokinetic characteristics thereof were evaluated.
Test animals: 3 healthy, 2-5 years old male cynomolgus monkeys in each group;
Administration by gavage: a certain amount of drug was weighed, and 0.5% by mass of hypromellose, 0.1% by volume of Tween 80 and 99.4% by volume of water were added thereto to formulate a white suspension at 1 mg/mL.
The cynomolgus monkeys were fasted overnight, and then the drug was administered by gavage at a dose of 5 mg/kg.
(§6) Cynomolgus monkeys were administered the compounds of the present invention by gavage. At 0.25, 0.5, 1, 2, 4, 8 and 24 hours after administration, 0.2 mL of blood was collected from the peripheral vein and placed in a test tube containing EDTA-K2. The tube was centrifuged at 2 to 8° C., 2000 rpm for 10 minutes to separate the plasma, which was stored at −75° C.
Determination of the content of the test compounds in cynomolgus monkey plasma after administration of different concentrations of drugs by gavage: 55 μL of cynomolgus monkey plasma at each time after administration was taken, and 200 μL of a solution of the internal standard verapamil or dexamethasone in acetonitrile. The mixture was mixed by vortexing for 30 seconds, centrifuged at 4° C., 3900 rpm for 15 minutes. The supernatant of the plasma samples were collected and diluted three times with water, and 15 μL was taken for LC/MS/MS analysis.

[2] = In vivo pharmacokinetics in rats (gavage); design: species or system SD rats; conditions: original drug, rat, 5 mpk
Description: as §5, with “Rats” for “Cynomolgus monkeys”, “rats” for “cynomolgus monkeys”
Test animals: 3 healthy, 6-8 weeks old male SD rats in each group
A certain amount of drug was weighed, and 0.5% by mass of hypromellose, 0.1% by volume of Tween 80 and 99.4% by volume of water were added thereto to formulate a white suspension at 1 mg/mL.
SD rats were fasted overnight, then the drug was administered by gavage. The dosage of reference 1 was 7.5 mg/kg, and the dosage of Example 1 was 5 mg/kg.
as §6, with “Rats” for “Cynomolgus monkeys”, “jugular” for “peripheral”, “4°” for “2 to 8°”, “4000” for “2000”, “5” for “10”
Determination of the content of the test compounds in rat plasma after administration of different concentrations of drugs by gavage: 50 μL of rat plasma at each time after administration was taken, and 200 μL of a solution of the internal standard dexamethasone in acetonitrile (50 ng/mL). The mixture was mixed by vortexing for 30 seconds, centrifuged at 4° C., 4700 rpm for 15 minutes. The supernatant of the plasma samples were collected and diluted three times with water, and 2.0 μL was taken for the LC/MS/MS analysis.

CYP2D6 = biological target: T1, CYP2D6 (Homo sapiens, UniProt P10635); experiment: CYP inhibition in mixed human liver microsomes, CYP2D6 (bufurolol hydrochloride); type: in vitro ADME
T1 construct: Mixed human liver microsomes from 150 donors; tissue Corning 452117; host or cells: pooled human liver microsomes (150 donors)
Description: as §1, §2, §3, §4

T1 sequence (P10635 whole entry): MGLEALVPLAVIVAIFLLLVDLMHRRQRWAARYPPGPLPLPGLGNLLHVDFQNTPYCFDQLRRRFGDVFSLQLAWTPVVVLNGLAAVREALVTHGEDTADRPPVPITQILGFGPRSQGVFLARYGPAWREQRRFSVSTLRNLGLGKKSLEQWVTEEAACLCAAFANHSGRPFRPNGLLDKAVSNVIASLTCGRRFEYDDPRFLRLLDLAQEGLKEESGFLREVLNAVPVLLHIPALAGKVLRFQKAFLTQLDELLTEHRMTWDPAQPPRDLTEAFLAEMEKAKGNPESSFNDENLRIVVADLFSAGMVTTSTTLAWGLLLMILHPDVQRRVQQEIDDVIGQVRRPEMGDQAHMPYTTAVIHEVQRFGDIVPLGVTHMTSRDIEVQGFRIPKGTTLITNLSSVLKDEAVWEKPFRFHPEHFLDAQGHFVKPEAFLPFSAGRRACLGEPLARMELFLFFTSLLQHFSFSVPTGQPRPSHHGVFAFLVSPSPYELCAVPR

## [2H]C([2H])([2H])Nc1nccc(Sc2c(C)nc(N3CCC4(CC3)Cc3ncccc3[C@H]4N)n3ccnc23)c1Cl [Example 3, (S)-1′-(8-((3-Chloro-2-((methyl-d3)amino)pyridin-4-yl)thio)-7-methylimidazo[1,2-c]pyrimidin-5-yl)-5,7-dihydrospiro[cyclopenta[b]pyridine-6,4′-piperidin]-5-amine]
CYP3A4/5
  IC50 at 5 min: > 20 µM
[1]; read-out: Area under curve AUC
  AUC: 72300 ng·h/mL
[1]; read-out: Maximum blood conc. Cmax
  Cmax: 12200 ng/mL
[2]; male, SD, plasma, po, 5 mg/kg, read-out: Area under curve AUC
  AUC: 3820 ng·h/mL
[2]; male, SD, plasma, po, 5 mg/kg, read-out: Maximum blood conc. Cmax
  Cmax: 445 ng/mL
[2]
  Area under curve of unit dose AUC/D: 764 ng*h/mL per mg/kg
CYP2D6
  IC50: > 20 µM
